Source: patent US20170101669A1, “Nucleic Acid Based Sensor and Methods Thereof” (National Centre for Biological Sciences, priority 2014, published 2017)

Key:
[1] = test system: endosomal compartments of Drosophila hemocytes; assay: Chloride concentration in endosomal compartments of hemocytes under chemical perturbation, measured with Clensor; type: cell-based; conditions: +NPPB
Procedure: Hemocytes are washed with 1×M1 buffer (150 mM NaCl, […], 1 mM CaCl2, 1 mM MgCl2, 20 mM HEPES pH 7.2) prior to labeling. Hemocytes are incubated with 2 μM of Clensor sample (diluted in 1×M1 buffer) for 5-10 minutes (depending on the signal again, *for measurements in early endosomes 5 min pulse is given*) and then washed 3-4 times with 1×M1 and then chased for an additional 5 to 120 minutes. For a chase longer than 5 minutes, 1×M1 is replaced by complete insect medium and transferred to a 20° C. incubator. For 5 minute chases, cells are washed and then imaged in 1×M1.
For Chloride ion […] measurement experiments, after pulsing with Clensor, cells are chased for (i) 5 min (Early Endosome), (ii) 60 min (Late endosome) and (iii) 120 min (Lysosome). Each set of cells are then imaged live, acquiring two images for each set of cells. (i) Ex=480/20, Dichroic=500-600 BP, Em=535/40 and (ii) Ex=640/30, Dichroic=665 LP, Em=690/50.
Hemocytes are pulsed with 2 μM of Clensor sample for 30 minutes (for development of a signal), washed 3-4 times with 1×M1 followed by a 5 minute chase in same medium. Cells are then fixed with 200 μL 2.5% paraformaldehyde (PFA) for 20 minutes at room temperature, quickly washed 3 times and retained in 1×M1. To obtain intracellular Chloride ion (Cl^−) calibration curve, perfusate and endosomal Chloride ion (Cl^−) concentration are equalized by incubating the previously fixed cells in 120 mM KCl/KNO3, 20 mM NaCl/NaNO3, 1 mM CaCl2/Ca(NO3)2, 1 mM MgCl2/Mg(NO3)2, and 10 mM HEPES at pH 7.2, with Chloride ion (Cl^−) concentration from about 0-80 mM (NO3^− replacing Cl^−) for about 3 hours at room temperature. Chloride clamping solution contains Nigericin (10 μM)+Valinomycin (10 μM)+CCCP (5 μM)+Monensin (10 μM)+Bafilomycin (200 nM). The cells are imaged in the same buffer.
Here, the hemocytes are treated with a non-specific chloride ion channel blocker NPPB (5-nitro-2-(3-phenylpropylamino)-benzoate).

[2] = test system: Drosophila hemocytes; assay: Bafilomycin perturbation of endosomal chloride concentration and pH in hemocytes; type: cell-based
Procedure: Bafilomycin is used to perturb endosomal Chloride ion concentration [Cl^−] and these perturbations are followed by changes in R/G ratios in Clensor labeled endosomes of Drosophila hemocytes. pH is simultaneously measured in this system by pulsing with about 2 mg/mL 10 kDa FITC-dextran (FD10) for about 5 minutes at room temperature and chased for about 120 minutes at about 20° C. The cells are then incubated with 1×M1 buffer containing about 200 nM Bafilomycin followed by a 120 minute chase at about 20° C. in the same buffer.
Intracellular pH is measured by the Dual Excitation Method. λEx480/λEx 430 emission ratios show about 2.1 fold decrease in pH as a function of time till about 120 minutes post endocytosis, indicating the expected decrease in pH in hemocytes (FIG. 16a, black). Upon Bafilomycin treatment, endosomal pH is reversed as given by gradual increase (˜2.2 fold) in λEx480/λEx 430 emission ratios (FIG. 16a, black). […]
FIG. 16 depicts the integrity of Clensor during endosomal maturation. […] Chloride concentrations and pH values are monitored after Bafilomycin treatment. […] Endosomal pH is monitored by ratios of the intensity at 530 nm when the FITC is excited at 480 nm and 430 nm (λex480/λex 430). […]

Compound | Mean [Cl−] ± s.e.m, EE ([1]; early endosomes, 5 min) | Mean [Cl−] ± s.e.m, LE ([1]; late endosomes, 60 min) | Mean [Cl−] ± s.e.m, LY ([1]; lysosomes, 120 min) | increase in λEx480/λEx 430 emission ratios (reversal of endosomal pH) ([2]; 200 nM Bafilomycin, FITC-dextran labeled hemocytes, after 120 min chase) | change of R/G ratios of Clensor labeled endosomes (endosomal [Cl−]) ([2]; after 200 nM Bafilomycin treatment)
O=C(O)c1cc([N+](=O)[O-])ccc1NCCCc1ccccc1 [NPPB, 5-nitro-2-(3-phenylpropylamino)-benzoate] | 9.3 ± 1.5 mM | 33.8 ± 2.5 mM | 86.5 ± 3.5 mM |  | 
Bafilomycin |  |  |  | ~2.2 fold | R/G ratios gradually decrease
